The source made the active and inactive calls.
Tests used:
Type in all cases: functional, organism-based
Mus musculus [1] = organism: Mus musculus; assay: Effect on GYS2 mRNA expression levels in adipose tissue of KK-Ay diabetic mouse model at 0.4 to 1.1 mg added daily to normal chow pellets for 10 weeks by qRT-PCR analysis
Mus musculus [2] = organism: Mus musculus; assay: Effect on GLUT2 mRNA expression levels in liver of KK-Ay diabetic mouse model at 0.4 to 1.1 mg added daily to normal chow pellets for 10 weeks by qRT-PCR analysis
Mus musculus [3] = organism: Mus musculus; assay: Effect on PPARgamma mRNA expression levels in muscle of KK-Ay diabetic mouse model at 0.4 to 1.1 mg added daily to normal chow pellets for 10 weeks by qRT-PCR analysis
Mus musculus [4] = organism: Mus musculus; assay: Antidiabetic activity in KK-Ay diabetic mouse model assessed as reduction in HOMA-IR levels at 0.4 mg added daily to normal chow pellets for 10 weeks
Mus musculus [5] = organism: Mus musculus; assay: Effect on AMPKalpha2 mRNA expression levels in liver of KK-Ay diabetic mouse model at 0.4 to 1.1 mg added daily to normal chow pellets for 10 weeks by qRT-PCR analysis

Measured: Activity

C[C@@]12CCc3occc3[C@H]1CC[C@@]13C[C@H](CC[C@H]12)[C@@](O)(CO)C3
inactive: Mus musculus [1] | Mus musculus [2] | Mus musculus [3] | Mus musculus [4] | Mus musculus [5]

Source: ChEMBL document CHEMBL4190297, “Cafestol, a Bioactive Substance in Coffee, Has Antidiabetic Properties in KKAy Mice” (J Nat Prod, 2017)
